Reference: patent US7893110B2 (Givaudan S.A., priority 2005, dated 2011)

What was measured:
mouth [1] = assay: Application in toothpaste: cooling sensation felt by panelist; format: in vivo; settings: toothgel with 2.5 g of 2% sol. in PG per 100 g, plus peppermint oil; 1 g brushed on teeth, mouth rinsed with water
Excerpt: [table] The chemicals are mixed in the toothgel, and 1 g of the toothgel is put on a toothbrush and a panelist's teeth are brushed. The mouth is rinsed with water and the water is spit out.

mouth [2] = assay: Application in mouthwash: cooling sensation; format: in vivo; settings: mouthwash with 50 mL of 1% sol. in alcohol per liter, plus peppermint oil; 30 mL put in the mouth, swished, gargled and spit out
Method: [table] All the ingredients are mixed. 30 mL of obtained solution is put in the mouth, swished around, gargled and spit out.

SMILES | cooling sensation in the mouth (mouth [1]) | cooling sensation in the mouth (mouth [2])
COc1ccc(NC(=O)C23CC4CC(CC(C4)C2)C3)cc1 [Example 2F, Adamantane-1-carboxylic acid (4-methoxy-phenyl)-amide] | cooling sensation | –
CC(C)(C)C1CCCCC1C(=O)Nc1ccc(CO)cc1 (centres unmarked) [Example 2L, 2-tert-Butyl-cyclohexanecarboxylic acid (4-hydroxymethyl-phenyl)-amide] | – | strong cooling sensation
